Converted amounts (≈) assume the structure as drawn. “And” between values parts separate entries of the source, which are not always exact repeats. Equal values may be shown once. Read-outs that look alike come from different tables or passages of the source. Marks after values point to notes of the source that are not given here.

The results in this text go back to patent US20260250312A1, “ANTIBACTERIAL COMPOUNDS ELIMINATING DORMANT BACTERIAL CELLS” (UNIVERSITÉ D'AIX-MARSEILLE, priority 2022, published 2026).

The subject of experiment [1] is Escherichia coli (ATCC28922). Kind of experiment: Microdilution MIC assay (CLSI-based), E. coli. In kind it is cell-based. Conditions: 20 hours incubation at 35-37° C., MHB; for MIC: read-out: Minimum inhibitory concentration E. coli ATCC28922. The gist of the method:
(§1)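 Broth microdilution per modified CLSI guidelines in Mueller Hinton broth, 200 μL, inoculum ca. 5×10^5 CFU/mL; compounds tested as salts, twofold dilutions from 0.2 mg/mL, in triplicate. MIC determined from OD at 620 nm after incubation.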
For orientation: In broth dilution the organism is exposed to a series of concentrations in liquid medium.

In experiment [2] the test system is Enterococcus faecalis (ATCC29212). Kind of experiment: Microdilution MIC assay (CLSI-based), E. faecalis. In kind it is cell-based. Conditions: Enterococcus faecalis, ATCC29212, 20 h, 20 hours incubation at 35-37° C., MHB; read-out: Minimum inhibitory concentration E. faecalis ATCC29212. The procedure, abridged:
as §1

The test system of experiment [3] is Pseudomonas aeruginosa (ATCC27853). Kind of experiment: Microdilution MIC assay (CLSI-based), P. aeruginosa. Conditions: 20 hours incubation at 35-37° C., MHB; for MIC: Pseudomonas aeruginosa, ATCC27853, 20 h, read-out: Minimum inhibitory concentration P. aeruginosa ATCC27853. The format is cell-based. The procedure, abridged:
as §1

The test system of another experiment is CHO-K1 cells. The experiment is described as follows: WST1 cytotoxicity test. The format is cell-based, Chinese hamster. Conditions: Cricetulus griseus, CHO-K1, 24 h, WST1, 24 hours at 37° C.; read-out: IC50 CHO. The procedure, abridged:
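CHO-K1 cells pre-cultured 24 h, then exposed 24 h at 37 °C to increasing compound concentrations. Viability read as WST-1 formazan absorbance at 450 nm after 20 min; dose-response fitted by nonlinear regression.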
Background: Formazan colour is commonly taken as a measure of viable cells.

In experiment [4] the test system is Staphylococcus aureus (ATCC25923). The experiment is described as follows: Microdilution MIC assay (CLSI-based), S. aureus. In kind it is cell-based. Conditions: Staphylococcus aureus, ATCC25923, 20 h, 20 hours incubation at 35-37° C., MHB; read-out: Minimum inhibitory concentration S. aureus ATCC25923. The gist of the method:
as §1

Where [5] appears, read: Escherichia coli, ATCC28922, 20 h.

As to `COC(=O)[C@@H](Cc1ccccc1)NC(=O)CC[C@@H](C)[C@H]1CCC2C3C(CC[C@@]21C)[C@@]1(C)CC[C@H](NCCCNCCCN)C[C@H]1C[C@H]3O` (stereo partly drawn) [Compound S028, methyl ((4R)-4-((3S,5S,7R,10S,13R,17R)-3-((3-((3-aminopropyl)amino)propyl)amino)-7-hydroxy-10,13-dimethylhexadecahydro-1H-cyclopenta[a]phenanthren-17-yl)pentanoyl)-D-phenylalaninate], the MIC is 6.25 µM and 4 µg/mL in experiment [1] (setting [5]); 12.5 µM and 8 µg/mL in experiment [2]; 50 µM and 32 µg/mL in experiment [3]; 12.5 µM and 8 µg/mL in experiment [4]. In the experiment on CHO-K1 cells, the IC50 was 54.6 µM and 36.4 µg/mL.
With `COC(=O)[C@@H](Cc1ccccc1)NC(=O)CC[C@@H](C)[C@H]1CCC2C3C(CC[C@@]21C)[C@@]1(C)CC[C@H](NCCCNCCCNCCCN)C[C@H]1C[C@H]3O` (stereo partly drawn) [Compound S022, methyl ((4R)-4-((3S,5S,7R,10S,13R,17R)-3-((3-((3-((3-aminopropyl)amino)propyl)amino)propyl)amino)-7-hydroxy-10,13-dimethylhexadecahydro-1H-cyclopenta[a]phenanthren-17-yl)pentanoyl)-D-phenylalaninate], the MIC in experiment [1] (setting [5]) is 12.5 µM and 8 µg/mL; in experiment [2] it was 25 µM and 16 µg/mL; in experiment [3], 12.5 µM and 8 µg/mL; in experiment [4], 12.5 µM and 8 µg/mL. Moreover, the IC50 in the experiment with CHO-K1 cells is 17.1 µM and 12.4 µg/mL.
For `COC(=O)[C@@H](NC(=O)CC[C@@H](C)[C@H]1CC[C@H]2[C@@H]3[C@H](O)C[C@@H]4CC(NCCCN(CCCN)CCCN)CC[C@]4(C)[C@H]3CC[C@]12C)C(C)C` (mixture of isomers) [Compound S003, methyl ((4R)-4-((3S,5S,7R,10S,13R,17R)-3-((3-(bis(3-aminopropyl)amino)propyl)amino)-7-hydroxy-10,13-dimethylhexadecahydro-1H-cyclopenta[a]phenanthren-17-yl)pentanoyl)valinate], the MIC in experiment [1] (setting [5]) was 100 µM and 64 µg/mL; in experiment [2], 50 µM and 32 µg/mL; in experiment [3], 100 µM and 64 µg/mL; in experiment [4], 6.25 µM and 4 µg/mL. In addition, the IC50 with CHO-K1 cells is 165 µM and 111 µg/mL.
Consider `COC(=O)[C@H](Cc1ccccc1)NC(=O)CC[C@@H](C)[C@H]1CCC2C3C(CC[C@@]21C)[C@@]1(C)CC[C@H](NCCCN2CCN(CCCN)CC2)C[C@H]1C[C@H]3O` (stereo partly drawn) [Compound S025, methyl ((4R)-4-((3S,5S,7R,10S,13R,17R)-3-((3-(4-(3-aminopropyl)piperazin-1-yl)propyl)amino)-7-hydroxy-10,13-dimethylhexadecahydro-1H-cyclopenta[a]phenanthren-17-yl)pentanoyl)-L-phenylalaninate], for which the MIC in experiment [1] (setting [5]) is 25 µM and 16 µg/mL; in experiment [2] it was 25 µM and 16 µg/mL; in experiment [3], 100 µM and 64 µg/mL; in experiment [4] it was 25 µM and 16 µg/mL. In addition, in the experiment with CHO-K1 cells, the IC50 was 3.7 µM and 2.72 µg/mL.
In the case of `COC(=O)[C@H](NC(=O)CC[C@@H](C)[C@H]1CCC2C3C(CC[C@@]21C)[C@@]1(C)CC[C@H](NCCCN)C[C@H]1C[C@H]3O)C(C)C` (stereo partly drawn) [Compound S018, methyl ((4R)-4-((3S,5S,7R,10S,13R,17R)-3-((3-aminopropyl)amino)-7-hydroxy-10,13-dimethylhexadecahydro-1H-cyclopenta[a]phenanthren-17-yl)pentanoyl)-D-valinate], the MIC in experiment [1] (setting [5]) was 200 µM and 128 µg/mL; in experiment [2] it was 100 µM and 64 µg/mL; in experiment [3], 200 µM and 128 µg/mL; in experiment [4], 50 µM and 32 µg/mL. Also, the IC50 in the experiment on CHO-K1 cells was 10.9 µM and 6.1 µg/mL.
Consider `CC[C@@H](C)[C@H](NC(=O)CC[C@@H](C)[C@H]1CCC2C3C(CC[C@@]21C)[C@@]1(C)CC[C@H](NCCCNCCCN)C[C@H]1C[C@H]3O)C(=O)OC` (stereo partly drawn) [Compound S050, methyl (2S,3R)-2-((4R)-4-((3S,5S,7R,10S,13R,17R)-3-((3-((3-aminopropyl)amino)propyl)amino)-7-hydroxy-10,13-dimethylhexadecahydro-1H-cyclopenta[a]phenanthren-17-yl)pentanamido)-3-methylpentanoate], for which the MIC in experiment [1] (setting [5]) was 12.5 µM and 8 µg/mL; in experiment [2] it was 25 µM and 16 µg/mL; in experiment [3] it was 50 µM and 32 µg/mL; in experiment [4], 3.12 µM and 2 µg/mL. Further, in the experiment on CHO-K1 cells, the IC50 is 10.5 µM and 6.63 µg/mL.
For `COC(=O)[C@@H](Cc1ccc(O)cc1)NC(=O)CC[C@@H](C)[C@H]1CCC2C3C(C[C@H](O)[C@@]21C)[C@@]1(C)CC[C@H](NCCCNCCCCNCCCN)C[C@H]1C[C@H]3O` (stereo partly drawn) [Compound S061, methyl ((4R)-4-((3S,5S,7R,10S,12S,13R,17R)-3-((3-((4-((3-aminopropyl)amino)butyl)amino)propyl)amino)-7,12-dihydroxy-10,13-dimethylhexadecahydro-1H-cyclopenta[a]phenanthren-17-yl)pentanoyl)-D-tyrosinate], the MIC was 100 µM and 64 µg/mL in experiment [1] (setting [5]); 100 µM and 64 µg/mL in experiment [2]; 100 µM and 64 µg/mL in experiment [3]; 6.25 µM and 4 µg/mL in experiment [4]. Also, the IC50 in the experiment on CHO-K1 cells is 6.85 µM and 5.17 µg/mL.
For the molecule `COC(=O)CNC(=O)CC[C@@H](C)[C@H]1CCC2C3C(CC[C@@]21C)[C@@]1(C)CC[C@H](NCCCN2CCN(CCCN)CC2)C[C@H]1C[C@H]3O` (stereo partly drawn) [Compound S006, methyl ((4R)-4-((3S,5S,7R,10S,13R,17R)-3-((3-(4-(3-aminopropyl)piperazin-1-yl)propyl)amino)-7-hydroxy-10,13-dimethylhexadecahydro-1H-cyclopenta[a]phenanthren-17-yl)pentanoyl)glycinate], the MIC is > 200 µM and > 128 µg/mL in experiment [1] (setting [5]); > 200 µM and > 128 µg/mL in experiment [2]; > 200 µM and > 128 µg/mL in experiment [3]; 25 µM and 16 µg/mL in experiment [4]. Besides, the IC50 with CHO-K1 cells was 73.6 µM and 47.7 µg/mL.
Turning to `COC(=O)[C@H](CC(C)C)NC(=O)CC[C@@H](C)[C@H]1CCC2C3C(CC[C@@]21C)[C@@]1(C)CC[C@H](NCCCNCCNCCCN)C[C@H]1C[C@H]3O` (stereo partly drawn) [Compound S035, methyl ((4R)-4-((3S,5S,7R,10S,13R,17R)-3-((3-((2-((3-aminopropyl)amino)ethyl)amino)propyl)amino)-7-hydroxy-10,13-dimethylhexadecahydro-1H-cyclopenta[a]phenanthren-17-yl)pentanoyl)-L-leucinate], the MIC is 12.5 µM and 8 µg/mL in experiment [1] (setting [5]); 12.5 µM and 8 µg/mL in experiment [2]; 12.5 µM and 8 µg/mL in experiment [3]; 12.5 µM and 8 µg/mL in experiment [4]. Moreover, in the experiment on CHO-K1 cells, the IC50 was 45.2 µM and 30.6 µg/mL.
Regarding `COC(=O)CNC(=O)CC[C@@H](C)[C@H]1CCC2C3C(CC[C@@]21C)[C@@]1(C)CC[C@H](NCCCNCCCCNCCCN)C[C@H]1C[C@H]3O` (stereo partly drawn) [Compound S004, methyl ((4R)-4-((3S,5S,7R,10S,13R,17R)-3-((3-((4-((3-aminopropyl)amino)butyl)amino)propyl)amino)-7-hydroxy-10,13-dimethylhexadecahydro-1H-cyclopenta[a]phenanthren-17-yl)pentanoyl)glycinate], the “Minimum inhibitory concentration E. coli ATCC28922” value in experiment [1] was 64 µg/mL (≈ 98.8 µM). Also, the MIC in experiment [1] is 100 µM (≈ 64.8 µg/mL); in experiment [2] it was 50 µM and 32 µg/mL; in experiment [4] it was 6.25 µM and 4 µg/mL. Besides, the “Minimum inhibitory concentration P. aeruginosa ATCC27853” value in experiment [3] was >200* μM and >128* μg/mL. In the experiment on CHO-K1 cells, the IC50 was 51.7 µM and 33.5 µg/mL.
As to `COC(=O)[C@H](Cc1ccccc1)NC(=O)CC[C@@H](C)[C@H]1CCC2C3C(CC[C@@]21C)[C@@]1(C)CC[C@H](NCCCNCCNCCCN)C[C@H]1C[C@H]3O` (stereo partly drawn) [Compound S029, methyl ((4R)-4-((3S,5S,7R,10S,13R,17R)-3-((3-((2-((3-aminopropyl)amino)ethyl)amino)propyl)amino)-7-hydroxy-10,13-dimethylhexadecahydro-1H-cyclopenta[a]phenanthren-17-yl)pentanoyl)-L-phenylalaninate], the MIC is 50 µM and 32 µg/mL in experiment [1] (setting [5]); 12.5 µM and 8 µg/mL in experiment [2]; 50 µM and 32 µg/mL in experiment [3]; 12.5 µM and 8 µg/mL in experiment [4]. In addition, the IC50 with CHO-K1 cells is 47.8 µM and 33.9 µg/mL.

What is called IC50 is the midpoint of a concentration-inhibition curve.
